Results: the supplement of paper PMC8612539
Converted amounts (≈) assume the structure as drawn.

What was measured:
Pasteurella multocida = assay: minimum inhibitory concentration (MIC)
Experimental: (§1)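 Broth microdilution MIC (Sensititre BOPO7F bovine plate, CLSI methods) of 19 antimicrobials against field isolates of P. multocida, M. haemolytica, H. somni (deep nasopharyngeal swabs) and E. coli, Enterococcus spp. (rectal swabs) from weaned dairy heifers. Incubation 16-24 h at 35 C. MIC is the lowest concentration preventing visible growth. Values with <= or > lie at the tested range limits. Trimethoprim-sulfamethoxazole is given as the trimethoprim component of a 1:19 mixture.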

Enterococcus spp. = assay: minimum inhibitory concentration (MIC)
Experimental: as §1

CC1(C)S[C@@H]2[C@H](NC(=O)[C@H](N)c3ccccc3)C(=O)N2[C@H]1C(=O)O [Ampicillin]
minimum inhibitory concentration [µg/mL]
Settings	Enterococcus spp.	Pasteurella multocida
isolate (source animal id): 2	≤ 0.25	–
isolate (source animal id): 35	1 (≈ 2.86 µM)	–
isolate (source animal id): 42	1 (≈ 2.86 µM)	–
isolate (source animal id): 44	1 (≈ 2.86 µM)	–
isolate (source animal id): 79	1 (≈ 2.86 µM)	–
isolate (source animal id): 88	≤ 0.25	–
isolate (source animal id): 91	≤ 0.25	–
isolate (source animal id): 92	0.5 (≈ 1.43 µM)	–
isolate (source animal id): 111	≤ 0.25	–
isolate (source animal id): 122	1 (≈ 2.86 µM)	–
isolate (source animal id): 123	1 (≈ 2.86 µM)	–
isolate (source animal id): 133	0.5 (≈ 1.43 µM)	–
isolate (source animal id): 158	1 (≈ 2.86 µM)	–
isolate (source animal id): 168	1 (≈ 2.86 µM)	–
isolate (source animal id): 169	1 (≈ 2.86 µM)	–
isolate (source animal id): 171	0.5 (≈ 1.43 µM)	–
isolate (source animal id): 175	1 (≈ 2.86 µM)	–
isolate (source animal id): 177	1 (≈ 2.86 µM)	–
isolate (source animal id): 181	1 (≈ 2.86 µM)	–
isolate (source animal id): 182	2 (≈ 5.72 µM)	–
isolate (source animal id): 183	1 (≈ 2.86 µM)	–
isolate (source animal id): 187	2 (≈ 5.72 µM)	–
isolate (source animal id): 190	2 (≈ 5.72 µM)	–
isolate (source animal id): 194	0.5 (≈ 1.43 µM)	–
isolate (source animal id): 195	1 (≈ 2.86 µM)	–
isolate (source animal id): 197	0.5 (≈ 1.43 µM)	–
isolate (source animal id): 211	1 (≈ 2.86 µM)	–
isolate (source animal id): 214	0.5 (≈ 1.43 µM)	–
isolate (source animal id): 222	0.5 (≈ 1.43 µM)	–
isolate (source animal id): 223	0.5 (≈ 1.43 µM)	–
isolate (source animal id): 228	1 (≈ 2.86 µM)	–
isolate (source animal id): 230	2 (≈ 5.72 µM)	–
isolate (source animal id): 235	1 (≈ 2.86 µM)	–
isolate (source animal id): 236	0.5 (≈ 1.43 µM)	–
isolate (source animal id): 239	0.5 (≈ 1.43 µM)	–
isolate (source animal id): 241	2 (≈ 5.72 µM)	–
isolate (source animal id): 244	0.5 (≈ 1.43 µM)	–
isolate (source animal id): 246	1 (≈ 2.86 µM)	–
isolate (source animal id): 247	2 (≈ 5.72 µM)	–
isolate (source animal id): 250	0.5 (≈ 1.43 µM)	–
isolate (source animal id): 252	1 (≈ 2.86 µM)	–
isolate (source animal id): 268	≤ 0.25	–
isolate (source animal id): 269	–	≤ 0.25
isolate (source animal id): 270	–	≤ 0.25
isolate (source animal id): 274	–	≤ 0.25
isolate (source animal id): 275	–	≤ 0.25
isolate (source animal id): 276	–	≤ 0.25
isolate (source animal id): 277	–	≤ 0.25
isolate (source animal id): 278	–	≤ 0.25
isolate (source animal id): 279	–	≤ 0.25
isolate (source animal id): 280	–	≤ 0.25
isolate (source animal id): 282	1 (≈ 2.86 µM)	–
isolate (source animal id): 284	–	≤ 0.25
isolate (source animal id): 285	1 (≈ 2.86 µM)	≤ 0.25
isolate (source animal id): 287	–	≤ 0.25
isolate (source animal id): 289	≤ 0.25	–
isolate (source animal id): 290	≤ 0.25	≤ 0.25
isolate (source animal id): 294	–	≤ 0.25
isolate (source animal id): 295	–	≤ 0.25
isolate (source animal id): 296	≤ 0.25	≤ 0.25
isolate (source animal id): 298	≤ 0.25	–
isolate (source animal id): 301	≤ 0.25	–
isolate (source animal id): 307	–	≤ 0.25
isolate (source animal id): 310	1 (≈ 2.86 µM)	≤ 0.25
isolate (source animal id): 311	–	≤ 0.25
isolate (source animal id): 312	–	≤ 0.25
isolate (source animal id): 313	–	≤ 0.25
isolate (source animal id): 315	–	≤ 0.25
isolate (source animal id): 316	–	≤ 0.25
isolate (source animal id): 320	≤ 0.25	–
isolate (source animal id): 331	≤ 0.25	–
isolate (source animal id): 333	≤ 0.25	–
isolate (source animal id): 341	0.5 (≈ 1.43 µM)	–
